Data set [1] deals with isolated non-ischemic working rat heart. The data set can be described thus: Glucose oxidation rates in isolated working rat heart perfusion ([14C] glucose, 14CO2 production). The following applies: 60 minutes aerobic perfusion, compound added about 5 minutes into aerobic period, saline control 1580±183. As for the experimental part:
The goal was to determine if […] altered glucose oxidation rates or cardiac function in the isolated non-ischemic working rat heart model. This was achieved by subjecting rat hearts to 60 minutes of aerobic perfusion. […] was added about 5 minutes into the aerobic period and the effects of […] on glucose metabolism was determined during the aerobic period. […] Rat hearts were cannulated for isolated working heart perfusions as described previously (Lopaschuk et al., J Pharmacol Exp Ther. 1993 Jan; 264(1):135-44). In brief, male Sprague-Dawley rats (0.3-0.35 kg) were anesthetized with pentobarbital sodium (60 mg/kg i.p.). The hearts were quickly excised, the aorta was cannulated, and a retrograde perfusion at 37° C. was initiated at a hydrostatic pressure of 60 mm Hg. Hearts were trimmed of excess tissue, and the pulmonary artery and the opening to the left atrium were then cannulated. […] Spontaneously beating hearts were used in all perfusions, heart rate and aortic pressure were measured with a Biopac Systems Inc. blood pressure transducer connected to the aortic outflow line. Cardiac output and aortic flow were measured with Transonic […] ultrasonic flow probes in the preload and afterload lines, respectively. Coronary flow was calculated as the difference between cardiac output and aortic flow. […]

For data set [2] the following is noted: water, alcohol, and ether; cited from earlier work.

Drawing on patent US20070167411A1, “Compositions for treating angina” (Medicure International Inc., priority 2003, published 2007), this text covers glucose oxidation rates and solubility for two compounds.

For the compound `Cc1ncc(COP(=O)(O)O)c(C=O)c1O` [Example P5P, 3-hydroxy-2-methyl-5-[(phosphonooxy)methyl]-4-pyridine-carboxaldehyde], the glucose oxidation rates in data set [1] turned out to be 2253±230. The solubility entry in data set [2] was “essentially insoluble in water, alcohol, and ether”.
In turn, `O=C(O)C(Cl)Cl` [DCA, dichloroacetic acid, reference compound] displayed a glucose oxidation rates in data set [1] of 2422±140.
